Data taken from patent US4665169A, “Carbapenem antibiotics” (Bristol-Myers Company, priority 1985, dated 1987).
Values after ≈ are worked out from the molar mass of the structure shown. Read-outs that look alike come from different tables or passages of the source.

Key:
E. coli A20341-1 = test: In vitro antibacterial activity, MIC by tube dilution; type: cell-based; conditions: Escherichia coli, overnight 37° C., Nutrient Broth
E. coli A15119 = test: as above; type: cell-based; conditions: Escherichia coli, overnight 37° C., Nutrient Broth
K. pneumoniae A20468 = test: as above; type: cell-based; conditions: Klebsiella pneumoniae, A20468, Lot# 1794-27; overnight 37° C., Nutrient Broth
E. cloacae A-9659 = test: as above; type: cell-based; conditions: Enterobacter cloacae, A9659, Lot# 1794-27; overnight 37° C., Nutrient Broth
S. aureus A-9537 [1] = test: as above; type: cell-based; conditions: overnight 37° C., Nutrient Broth
S. aureus A-9537 [2] = test: In vitro antibacterial activity, MIC by tube dilution, 50% serum; type: cell-based
P. mirabilis A-9900 = test: In vitro antibacterial activity, MIC by tube dilution; type: cell-based; conditions: overnight 37° C., Nutrient Broth
K. pneumoniae A-9664 = test: as above; type: cell-based; conditions: Klebsiella pneumoniae, A9664; Lot# 1794-20; overnight 37° C., Nutrient Broth
S. marcescens A20019 = test: as above; type: cell-based; conditions: overnight 37° C., Nutrient Broth
S. pyogenes A-9604 = test: as above; type: cell-based; conditions: overnight 37° C., Nutrient Broth
[3] = tested on: P. aeruginosa (Carbenicillin-resistant) A21213; test: microbe, parasite or virus in culture; conditions: Pseudomonas aeruginosa
P. aeruginosa A9843a = test: In vivo activity, 50% protective dose in infected mice; conditions: Pseudomonas aeruginosa, im, 120 h, i.m., immediately and 2 hour post-infection, deaths over five days, read-out: PD50 (50% protective dose)
Description: BHI broth (9.0 ml) was inoculated with a loopful of thawed stock suspension of P. aeruginosa A9843a and incubated for 18 hr at 37° C. A volume of 0.5 ml of the 18 hr culture was added to 20 ml BHI broth and incubated for 3 hr. with constant shaking at 37° C. A 1/10,000 dilution of the shaker culture was prepared in 0.4% hog gastric mucin. Mice were infected by the intraperitoneal route with 0.5 ml of the bacterial suspension (corresponding to 6.0×10^4 viable cells/mouse).
Each mouse received a volume of 0.2 ml intramuscularly. Deaths were recorded over a period of five days following infection at which time the PD50 for the compound was determined by estimation of the 50% end-point using the probit analysis plot.

[4] = Blood levels in mice after intramuscular dosing; type: in vivo; conditions: mouse, im, 20 mg/kg; for AUC / Cmax / Tmax / half-life: 20 mg/kg i.m.; for concentration at 10 min: 10 min after 20 mg/kg i.m.; for concentration at 20 min: 20 min after 20 mg/kg i.m.; for concentration at 0.5 h: 30 min after 20 mg/kg i.m.; for concentration at 0.75 h: 45 min after 20 mg/kg i.m.; for concentration at 1 h: 60 min after 20 mg/kg i.m.; for concentration at 1.5 h: 90 min after 20 mg/kg i.m.
Description: For the determination of blood levels, two groups of mice were used. Each group consisted of four 20 g mice. Prior to dosing (5-10 min.) one of the groups received an i.p. injection of a dipeptidase inhibitor (BCH-1) at a level of 10 mg/kg.

E. cloacae A-9656 = test: In vitro antibacterial activity, MIC by tube dilution; type: cell-based; conditions: Enterobacter cloacae, A9656, Lot# 1794-27; overnight 37° C., Nutrient Broth
S. faecalis A20688 = test: as above; type: cell-based; conditions: overnight 37° C., Nutrient Broth
P. aeruginosa A-9843A = test: as above; type: cell-based; conditions: overnight 37° C., Nutrient Broth
S. pneumoniae A-9585 = test: as above; type: cell-based; conditions: Streptococcus pneumoniae, overnight 37° C., Nutrient Broth
P. vulgaris A21559 = test: as above; type: cell-based; conditions: overnight 37° C., Nutrient Broth
[5] = tested on: S. aureus (Penicillin-resistant) A-9606; test: as above; type: cell-based; conditions: Staphylococcus aureus, Nutrient Broth
Urinary recovery in mice = type: in vivo; conditions: mouse, urine; for dose excreted at 3 h: 0-3 hr.
Description: Two groups of mice were used for the urinary recovery evaluation. Each group consisted of four 20 g mice. Prior to dosing (5-10 minutes) one of the groups received an i.p. injestion of a dipeptidase inhibitor (BCH-1) at a level of 10 mg/kg. Following dosing, animals were placed in individual metabolism cages and the urine collected over ice at intervals of 0-3 and 3-6 hr. Animals were fasted overnight and a dextrose-amino acid solution was available ad libitum starting one hour before drug administration through six hours of urine collection. Urine samples were assayed for biological activity using sensitive assay plates containing B. subtilis ATCC 6633.

[6] = tested on: P. aeruginosa (Carbenicillin-resistant) A21213; conditions: Lot# 1794-27, overnight 37° C., Nutrient Broth
[7] = Half-life in pH 7.4 biological buffer; type: physicochemical; conditions: 37° C.
Description: To a cooled (5° C.) solution of (5R,6S)p-nitrobenzyl-6-(1^1 R-hydroxyethyl)-4R-methyl-3-(1-methyl-4-thiatetrahydrothiopyranium)-7-oxo- 1-azabicyclo[3.2.0]hept-2-ene-2-carboxyl-diphenylphosphate (2.40 g, 3.23 mmol) in tetrahydrofuran (240 mL) and 0.05M pH 7.0 phosphate buffer (240 mL) was added ether (240 mL) and 10% Pd/C (2.4 g). The mixture was hydrogenated in a Paar apparatus at 45 psi H2 at 15° C. for 1 hour. The solution was then filtered through glass fiber paper and the catalyst was washed with water (25 mL). The aqueous phase of the filtrate was washed with ether (2×100 mL) and purged under vacuum to remove any trace of organic solvent. The product was purified by reversed phase chromatography on μBondapak C-18 silica gel (100 g) using mixtures of acetonitrile-water as the eluent (10% CH3 CN--H2 O, quantity mL; 0%, 500 mL; 2%, 500 mL; 4%, 500 mL; 10%, 250 mL) to give 1.08 g of impure proudct. After lyophilization, this product and a 0.020 g sample from another experiment (starting from 0.067 mmol of the ester) was purified by hplc (hplc data re: C18 μBondapak, using 5% CH3 CN--H2 O at 4 mL/min, R. I. detector) to give 328 mg. […]

[8] = tested on: various Pseudomonas species; conditions: prior art statement; cited from earlier work

C[C@@H](O)[C@H]1C(=O)N2C(C(=O)[O-])=C(SC3CC[S+](C)CC3)C[C@H]12 (some centres unmarked) [Example 1]
MIC (E. coli A20341-1; A203411, Lot# 1794-20): 0.016 µg/mL (≈ 0.0466 µM)
MIC (E. coli A20341-1; A203411, Lot# 1794-27): 0.03 µg/mL (≈ 0.0873 µM)
MIC (E. coli A15119; A15119, Lot# 1794-20): 0.008 µg/mL (≈ 0.0233 µM)
MIC (E. coli A15119; A15119, Lot# 1794-27): 0.016 µg/mL (≈ 0.0466 µM)
MIC (K. pneumoniae A20468): 0.25 µg/mL (≈ 0.728 µM)
MIC (E. cloacae A-9659): 0.25 µg/mL (≈ 0.728 µM)
MIC (S. aureus A-9537 [1]; Lot# 1794-27): 0.008 µg/mL (≈ 0.0233 µM)
MIC (S. aureus A-9537 [1]; Staphylococcus aureus, A9537, Lot# 1794-20, read-out: MIC): 0.008 µg/mL (≈ 0.0233 µM)
MIC (S. aureus A-9537 [2]; Lot# 1794-27, overnight 37° C.): 0.016 µg/mL (≈ 0.0466 µM)
MIC (S. aureus A-9537 [2]; Staphylococcus aureus, A9537, Lot# 1794-20, overnight 37° C., read-out: MIC): 0.016 µg/mL (≈ 0.0466 µM)
MIC (P. mirabilis A-9900; Lot# 1794-27): 0.016 µg/mL (≈ 0.0466 µM)
MIC (P. mirabilis A-9900; Proteus mirabilis, A9900, Lot# 1794-20, read-out: MIC): 0.016 µg/mL (≈ 0.0466 µM)
MIC (K. pneumoniae A-9664): 0.03 µg/mL (≈ 0.0873 µM)
MIC (S. marcescens A20019; Lot# 1794-27): 0.03 µg/mL (≈ 0.0873 µM)
MIC (S. marcescens A20019; Serratia marcescens, A20019, Lot# 1794-20, read-out: MIC): 0.03 µg/mL (≈ 0.0873 µM)
MIC (S. pyogenes A-9604; Lot# 1794-27): 0.004 µg/mL (≈ 0.0116 µM)
MIC (S. pyogenes A-9604; Streptococcus pyogenes, A9604, Lot# 1794-20, read-out: MIC): 0.004 µg/mL (≈ 0.0116 µM)
MIC [3]: 0.25 µg/mL (≈ 0.728 µM)
ED50 (P. aeruginosa A9843a): 0.71 mg/kg
AUC ([4]; with BCH-1 10 mg/kg i.p.): 10900 ng·h/mL
Cmax ([4]; with BCH-1 10 mg/kg i.p.): 16100 ng/mL
Tmax ([4]; with BCH-1 10 mg/kg i.p.): 20 min
half-life ([4]; with BCH-1 10 mg/kg i.p.): 10 min
AUC ([4]; without BCH-1): 6800 ng·h/mL
Cmax ([4]; without BCH-1): 15400 ng/mL
Tmax ([4]; without BCH-1): 10 min
half-life ([4]; without BCH-1): 9 min
concentration at 10 min ([4]; with BCH-1 10 mg/kg i.p.): 15400 ng/mL
concentration at 10 min ([4]; without BCH-1): 15400 ng/mL
concentration at 20 min ([4]; with BCH-1 10 mg/kg i.p.): 16100 ng/mL
concentration at 20 min ([4]; without BCH-1): 11400 ng/mL
concentration at 0.5 h ([4]; with BCH-1 10 mg/kg i.p.): 12600 ng/mL
concentration at 0.5 h ([4]; without BCH-1): 7200 ng/mL
concentration at 0.75 h ([4]; with BCH-1 10 mg/kg i.p.): 7400 ng/mL
concentration at 0.75 h ([4]; without BCH-1): 2900 ng/mL
concentration at 1 h ([4]; with BCH-1 10 mg/kg i.p.): 3000 ng/mL
concentration at 1 h ([4]; without BCH-1): 700 ng/mL
concentration at 1.5 h ([4]; with BCH-1 10 mg/kg i.p.): 300 ng/mL
concentration at 1.5 h ([4]; without BCH-1): 300 ng/mL
MIC (E. cloacae A-9656): 0.25 µg/mL (≈ 0.728 µM)
MIC (S. faecalis A20688; Enterococcus faecalis, A20688, Lot# 1794-20, read-out: MIC): 0.5 µg/mL (≈ 1.46 µM)
MIC (S. faecalis A20688; Lot# 1794-27): 0.5 µg/mL (≈ 1.46 µM)
MIC (P. aeruginosa A-9843A; Lot# 1794-27): 2 µg/mL (≈ 5.82 µM)
MIC (P. aeruginosa A-9843A; Pseudomonas aeruginosa, A9843A, Lot# 1794-20, read-out: MIC): 2 µg/mL (≈ 5.82 µM)
MIC (S. pneumoniae A-9585; A9585, Lot# 1794-20): 0.001 µg/mL (≈ 0.00291 µM)
MIC (S. pneumoniae A-9585; A9585, Lot# 1794-27): 0.002 µg/mL (≈ 0.00582 µM)
MIC (P. vulgaris A21559; Lot# 1794-27): 0.016 µg/mL (≈ 0.0466 µM)
MIC (P. vulgaris A21559; Proteus vulgaris, A21559, Lot# 1794-20, read-out: MIC): 0.016 µg/mL (≈ 0.0466 µM)
MIC ([5]; Lot# 1794-20, overnight 37° C.): 0.016 µg/mL (≈ 0.0466 µM)
MIC ([5]; Lot# 1794-27, overnight 37° C.): 0.03 µg/mL (≈ 0.0873 µM)
dose excreted at 3 h (Urinary recovery in mice; with BCH-1 10 mg/kg i.p., read-out: Percent Recovered (urine)): 67%
dose excreted at 3 h (Urinary recovery in mice; without BCH-1, read-out: Percent Recovered (urine)): 44%
dose excreted at 6 h (Urinary recovery in mice; 0-6 hr., with BCH-1 10 mg/kg i.p., read-out: Percent Recovered (urine)): 67.1%
dose excreted at 6 h (Urinary recovery in mice; 0-6 hr., without BCH-1, read-out: Percent Recovered (urine)): 44.2%
dose excreted at 6 h (Urinary recovery in mice; 3-6 hr., with BCH-1 10 mg/kg i.p., read-out: Percent Recovered (urine)): 0.1%
dose excreted at 6 h (Urinary recovery in mice; 3-6 hr., without BCH-1, read-out: Percent Recovered (urine)): 0.2%
MIC [6]: 0.25 µg/mL (≈ 0.728 µM)

C[C@@H](O)[C@H]1C(=O)N2C(C(=O)[O-])=C(SC3CC[S+](C)CC3)[C@H](C)[C@H]12 (stereo partly drawn) [Example 2, (5R,6S)-6-(1R-hydroxyethyl)-4R-methyl-3-(1-methyl-4-thiatetrahydrothiopyranium)-7-oxo-1-azabicyclo[3.2.0]-hept-2-ene-2-carboxylate]
half-life [7]: 1800 min

C[C@@H](O)[C@H]1C(=O)N2C(C(=O)O)=C(SCCN)C[C@H]12 [Thienamycin, thienamycin]
activity against various Pseudomonas species [8]: notable activity
